The source of these data is patent US20230146699A1, “EDTA System for Reducing Browning in Mycohide Materials” (MycoWorks, Inc., priority 2021, published 2023).

The test concerns mycohide sheets (mycelium crusts); browning by polyphenol oxidases (PPOs). As to the kind of experiment: Visual assessment of browning reduction in mycohide (mycelium) sheets/crusts treated with chelating agent. The following applies: for reduction of surface browning (FIGS. 5-6): 1 mM and 5 mM chelator, plasticized mycohide, dried samples, 15% ALE fatliquor dip, EDTA compared with EGTA. How it is done:
In some embodiments, full sized cotton sheets are treated as defined by four groups: 1) plasticization without any treatment, 2) EDTA treatment only after harvesting sheets (5 mM EDTA 14 in water added on top of mycelia layer after harvest and gently massaged; then plasticize this section in glycerin/water solution), 3) EDTA treatment only during plasticization (plasticize in glycerin/water solution 40%/60% glycerin to water with EDTA at 5 mM), and/or 4) EDTA treatment on both harvested sheets and during plasticization (see above for conditions).

In the case of `O=C(O)CN(CCOCCOCCN(CC(=O)O)CC(=O)O)CC(=O)O` [EGTA, egtazic acid], the “reduction of surface browning (FIGS. 5-6)” value is recorded as “may be effectively applied”.

For `O=C(O)CN(CCN(CC(=O)O)CC(=O)O)CC(=O)O` [EDTA, ethylenediaminetetraacetic acid], the “reduction of surface browning (FIGS. 5-6)” value is recorded as “achieves greater reductions in browning”. Moreover, the “reduction of browning, crusts after fatliquoring, wet state (FIG. 9)” value (1 mM EDTA in water, 70 C for 0.5 hour first, vs control (no EDTA)) is listed as “more effective at reducing browning than a control group”. In addition, under “5 mM EDTA, 70 C heating step, vs 1 mM EDTA”, the “reduction of browning, crusts after fatliquoring, wet state (FIG. 9)” value was “even greater reductions in browning”. Besides, the “reduction of browning, crusts after fatliquoring, dry state (FIG. 10)” value (5 mM vs 1 mM EDTA, with or without 70 C (0.5 hour) heating step) is reported as “not more effective than a lower concentration of EDTA at reducing browning”. For the same compound, where the note is “EDTA treated sheets vs heat treatment with or without EDTA (FIGS. 16-18)”, the “color uniformity of mycelium sheets” value is “best color uniformity”. The “browning after EDTA added at different process steps (FIG. 20A, 20B)” value (full sized cotton sheets, 5 mM EDTA and 16 mM NaOH after harvest and/or during plasticization, varied fat liquor solution conditions) was “observed decrease in browning”. The “optimum concentration to achieve browning reduction” value (mycelium sheets, concentrations of EDTA and EGTA optimized) turned out to be 5 mM. Besides, the “effect of adding EDTA during tanning (D&S)” value (sheets previously treated with EDTA during harvest or plasticization (FIG. 18A, 18B)) is on record as “added whitening effect”.
